These results are taken from patent US20090298820A1, “3-SUBSTITUTED-1H-PYRROLO[2,3-B]PYRIDINE AND 3-SUBSTITUTED-1H-PYRROLO[3,2-B]PYRIDINE COMPOUNDS, THEIR USE AS MTOR KINASE AND PI3 KINASE INHIBITORS, AND THEIR SYNTHESES” (Wyeth, priority 2008, published 2009).

Bounds are passed on as bounds.

Series [1] addresses PI3Kγ (Homo sapiens, UniProt P48736). Nature of the series: PI3K-gamma fluorescence polarization assay. In kind it is biochemical. The conditions noted are these: read-out: PI3Kγ Median IC50.
Series [2] deals with PI3Kα (Homo sapiens, UniProt P42336). Nature of the series: PI3K-alpha fluorescence polarization assay. In kind it is biochemical. The conditions noted are these: read-out: PI3Kα Median IC50.
Series [3] concerns the target mTOR (Homo sapiens, UniProt P42345). The experiment in a line: mTOR enzyme assay (DELFIA format, His6-S6K substrate). The conditions noted are these: read-out: mTOR Kinase Median IC50. In kind it is biochemical.

Chain of PI3Kγ (P48736 whole entry, species assumed): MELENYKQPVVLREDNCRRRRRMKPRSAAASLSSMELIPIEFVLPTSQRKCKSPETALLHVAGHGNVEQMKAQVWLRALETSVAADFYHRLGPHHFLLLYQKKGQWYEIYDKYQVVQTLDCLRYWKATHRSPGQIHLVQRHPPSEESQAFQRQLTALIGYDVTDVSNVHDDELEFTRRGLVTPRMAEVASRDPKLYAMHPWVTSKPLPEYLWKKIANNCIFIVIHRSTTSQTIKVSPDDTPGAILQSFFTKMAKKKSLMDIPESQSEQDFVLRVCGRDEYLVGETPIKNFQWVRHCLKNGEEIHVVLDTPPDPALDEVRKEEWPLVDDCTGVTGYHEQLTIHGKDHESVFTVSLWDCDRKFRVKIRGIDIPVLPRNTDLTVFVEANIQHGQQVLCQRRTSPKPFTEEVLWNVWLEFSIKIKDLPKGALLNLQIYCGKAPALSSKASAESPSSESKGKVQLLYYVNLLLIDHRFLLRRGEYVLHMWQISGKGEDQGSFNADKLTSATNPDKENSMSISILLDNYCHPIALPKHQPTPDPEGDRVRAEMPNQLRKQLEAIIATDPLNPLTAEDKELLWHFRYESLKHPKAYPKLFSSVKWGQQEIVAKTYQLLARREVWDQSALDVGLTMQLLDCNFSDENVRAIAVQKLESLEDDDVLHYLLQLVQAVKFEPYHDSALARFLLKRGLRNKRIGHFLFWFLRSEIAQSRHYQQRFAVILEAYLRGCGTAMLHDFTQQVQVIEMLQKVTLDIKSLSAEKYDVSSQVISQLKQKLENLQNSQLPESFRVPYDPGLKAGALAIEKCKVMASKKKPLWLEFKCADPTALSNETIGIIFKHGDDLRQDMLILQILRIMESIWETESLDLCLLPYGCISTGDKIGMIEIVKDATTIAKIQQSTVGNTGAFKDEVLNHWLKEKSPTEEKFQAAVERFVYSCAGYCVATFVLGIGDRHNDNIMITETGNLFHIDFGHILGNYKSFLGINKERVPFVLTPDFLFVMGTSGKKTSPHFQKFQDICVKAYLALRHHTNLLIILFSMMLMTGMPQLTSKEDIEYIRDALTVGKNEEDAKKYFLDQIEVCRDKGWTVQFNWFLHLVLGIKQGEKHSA
Chain of PI3Kα (P42336 whole entry, species assumed): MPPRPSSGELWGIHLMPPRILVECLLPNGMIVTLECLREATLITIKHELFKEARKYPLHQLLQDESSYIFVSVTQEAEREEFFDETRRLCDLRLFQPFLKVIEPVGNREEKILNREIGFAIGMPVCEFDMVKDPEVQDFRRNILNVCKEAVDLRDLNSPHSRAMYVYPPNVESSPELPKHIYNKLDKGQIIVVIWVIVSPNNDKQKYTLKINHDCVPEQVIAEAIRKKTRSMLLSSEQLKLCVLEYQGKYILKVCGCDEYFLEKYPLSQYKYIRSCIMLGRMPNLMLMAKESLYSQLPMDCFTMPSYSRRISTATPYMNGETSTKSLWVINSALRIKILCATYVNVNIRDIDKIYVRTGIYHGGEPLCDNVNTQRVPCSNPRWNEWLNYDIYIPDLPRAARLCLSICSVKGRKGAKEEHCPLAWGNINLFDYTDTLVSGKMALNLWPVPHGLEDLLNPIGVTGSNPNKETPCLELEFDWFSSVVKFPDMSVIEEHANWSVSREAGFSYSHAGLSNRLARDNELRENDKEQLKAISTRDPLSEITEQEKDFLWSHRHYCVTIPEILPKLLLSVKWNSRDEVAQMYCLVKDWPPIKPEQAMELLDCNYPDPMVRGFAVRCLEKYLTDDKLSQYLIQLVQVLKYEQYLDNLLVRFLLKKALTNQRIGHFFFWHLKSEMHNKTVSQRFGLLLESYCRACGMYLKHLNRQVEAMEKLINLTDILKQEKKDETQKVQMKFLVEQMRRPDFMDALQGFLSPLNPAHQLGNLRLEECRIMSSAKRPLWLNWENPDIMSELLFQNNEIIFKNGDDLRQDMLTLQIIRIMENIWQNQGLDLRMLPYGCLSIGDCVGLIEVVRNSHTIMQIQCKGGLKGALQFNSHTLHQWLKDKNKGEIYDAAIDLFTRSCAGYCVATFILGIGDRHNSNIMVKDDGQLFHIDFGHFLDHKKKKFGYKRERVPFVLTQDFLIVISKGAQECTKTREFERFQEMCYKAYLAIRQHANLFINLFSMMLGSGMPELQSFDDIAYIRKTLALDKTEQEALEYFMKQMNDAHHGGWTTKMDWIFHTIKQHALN
Chain of PI3Kα (P27986 whole entry partner, species assumed): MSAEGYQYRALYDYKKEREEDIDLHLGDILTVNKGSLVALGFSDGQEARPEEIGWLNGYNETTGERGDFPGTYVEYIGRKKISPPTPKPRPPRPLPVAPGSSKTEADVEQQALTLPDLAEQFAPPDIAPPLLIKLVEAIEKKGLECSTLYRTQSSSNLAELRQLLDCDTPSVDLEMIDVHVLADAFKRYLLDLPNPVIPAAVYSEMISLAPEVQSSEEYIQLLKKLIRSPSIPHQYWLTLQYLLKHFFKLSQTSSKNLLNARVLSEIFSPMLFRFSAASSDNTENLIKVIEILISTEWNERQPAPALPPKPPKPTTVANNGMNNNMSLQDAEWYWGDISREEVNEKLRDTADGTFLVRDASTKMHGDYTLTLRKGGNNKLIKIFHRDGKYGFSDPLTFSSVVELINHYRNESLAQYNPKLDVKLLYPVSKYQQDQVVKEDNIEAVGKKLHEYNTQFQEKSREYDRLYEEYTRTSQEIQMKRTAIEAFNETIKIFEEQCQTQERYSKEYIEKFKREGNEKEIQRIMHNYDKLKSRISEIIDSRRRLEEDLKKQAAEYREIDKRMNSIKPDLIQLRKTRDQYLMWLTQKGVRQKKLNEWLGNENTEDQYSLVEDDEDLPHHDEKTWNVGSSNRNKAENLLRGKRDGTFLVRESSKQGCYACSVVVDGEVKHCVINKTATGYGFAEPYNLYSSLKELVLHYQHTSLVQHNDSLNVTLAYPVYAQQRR

Compound `Cn1cc(/C=C2\Oc3ccc(NC(=O)C(F)(F)F)cc3C2=O)c2c(-c3ccccc3)ccnc21` [Compound 156, 2,2,2-trifluoro-N-{(2Z)-2-[(1-methyl-4-phenyl-1H-pyrrolo[2,3-b]pyridin-3-yl)methylidene]-3-oxo-2,3-dihydro-1-benzofuran-5-yl}acetamide] came in with a melting point of 295 to 302 °C. In series [1], the IC50 came out at 6910 nM. In addition, the IC50 in series [2] worked out at 1940 nM. The IC50 in series [3] was found to be 1650 nM.
Consider `Cn1cc(/C=C2\Oc3cccc(O)c3C2=O)c2c(-c3ccc(N4CC5CCC(C4)O5)cc3)ccnc21` [Compound 157, (2Z)-4-hydroxy-2-({1-methyl-4-[4-(8-oxa-3-azabicyclo[3.2.1]oct-3-yl)phenyl]-1H-pyrrolo[2,3-b]pyridin-3-yl}methylidene)-1-benzofuran-3(2H)-one], for which the melting point is 252 to 260 °C (dec.). In series [1], the IC50 is 78 nM. Also, the IC50 in series [2] is 74 nM. In addition, in series [3], the IC50 was found to be 9.4 nM.
The corresponding values for `CN(C)C(=O)Nc1ccc2c(c1)C(=O)/C(=C/c1cn(C)c3nccc(-c4ccccc4)c13)O2` [Compound 161, 1,1-dimethyl-3-{(2Z)-2-[(1-methyl-4-phenyl-1H-pyrrolo[2,3-b]pyridin-3-yl)methylidene]-3-oxo-2,3-dihydro-1-benzofuran-5-yl}urea] are 275 to 280 °C, above 10000 nM, 5500 nM and 397 nM.
`Cn1cc(/C=C2\Oc3ccc(NS(C)(=O)=O)cc3C2=O)c2c(-c3ccccc3)ccnc21` [Compound 162, N-{(2Z)-2-[(1-methyl-4-phenyl-1H-pyrrolo[2,3-b]pyridin-3-yl)methylidene]-3-oxo-2,3-dihydro-1-benzofuran-5-yl}methanesulfonamide] came in with a melting point of 257 to 262 °C. Besides, the IC50 in series [1] was 7430 nM. For the same compound, in series [2], the IC50 was determined as 5900 nM. Also, the IC50 in series [3] was above 4000 nM.
`CN1CCN(C(=O)C2CCN(c3ccnc4c3c(/C=C3\Oc5cccc(O)c5C3=O)cn4C)CC2)CC1` [Compound 164, (2Z)-4-hydroxy-2-[(1-methyl-4-{4-[(4-methylpiperazin-1-yl)carbonyl]piperidin-1-yl}-1H-pyrrolo[2,3-b]pyridin-3-yl)methylidene]-1-benzofuran-3(2H)-one] displayed a melting point of 239 to 244 °C. For the same compound, the IC50 in series [1] was found to be 131 nM. Also, in series [2], the IC50 was 39 nM. Moreover, in series [3], the IC50 was determined as 3.1 nM.
Take `Cn1cc(/C=C2\Oc3ccc(NC(=O)Nc4cccnc4)cc3C2=O)c2c(N3CC4CCC(C3)O4)ccnc21` [Compound 167, 1-[(2Z)-2-{[1-methyl-4-(8-oxa-3-azabicyclo[3.2.1]oct-3-yl)-1H-pyrrolo[2,3-b]pyridin-3-yl]methylidene}-3-oxo-2,3-dihydro-1-benzofuran-5-yl]-3-pyridin-3-ylurea]: the melting point was in the range of 226 to 230 °C. For the same compound, in series [1], the IC50 is above 10000 nM. Further, the IC50 in series [2] is 2080 nM. Moreover, in series [3], the IC50 was 14.3 nM.
`CNC(=O)Nc1ccc2c(c1)C(=O)/C(=C/c1cn(C)c3nccc(N4CCC(C(=O)N(C)C)CC4)c13)O2` [Compound 168, N,N-dimethyl-1-{1-methyl-3-[(Z)-{5-[(methylcarbamoyl)amino]-3-oxo-1-benzofuran-2(3H)-ylidene}methyl]-1H-pyrrolo[2,3-b]pyridin-4-yl}piperidine-4-carboxamide]: the melting point worked out at 203 °C. For the same compound, the IC50 in series [1] was found to be 487 nM. In addition, in series [2], the IC50 turned out to be 420 nM. In addition, the IC50 in series [3] was 6.7 nM.
Turning to `CN(C)C(=O)C1CCN(c2ccnc3c2c(/C=C2\Oc4ccc(Br)cc4C2=O)cn3C)CC1` [Compound 169, 1-{3-[(Z)-(5-bromo-3-oxo-1-benzofuran-2(3H)-ylidene)methyl]-1-methyl-1H-pyrrolo[2,3-b]pyridin-4-yl}-N,N-dimethylpiperidine-4-carboxamide], the melting point stood at 241 °C. The IC50 in series [1] turned out to be 1170 nM. The IC50 in series [2] was above 10000 nM. The IC50 in series [3] was determined as 11.5 nM.
The like results for `CN(C)C(=O)C1CCN(c2ccnc3c2c(/C=C2\Oc4ccc(NC(=O)N5CCOCC5)cc4C2=O)cn3C)CC1` [Compound 170, N-[(2Z)-2-({4-[4-(dimethylcarbamoyl)piperidin-1-yl]-1-methyl-1H-pyrrolo[2,3-b]pyridin-3-yl}methylidene)-3-oxo-2,3-dihydro-1-benzofuran-5-yl]morpholine-4-carboxamide] were, in that order, 128 °C, above 10000 nM, 3110 nM and 91.5 nM.
Turning to `Cn1cc(/C=C2\Oc3ccc(NC(=O)Nc4cccnc4)cc3C2=O)c2c(N3CCC(C(=O)N4CCOCC4)CC3)ccnc21` [Compound 173, 1-[(2Z)-2-({1-methyl-4-[4-(morpholin-4-ylcarbonyl)piperidin-1-yl]-1H-pyrrolo[2,3-b]pyridin-3-yl}methylidene)-3-oxo-2,3-dihydro-1-benzofuran-5-yl]-3-pyridin-3-ylurea], the melting point was in the range of 246 to 251 °C. Also, the IC50 in series [1] was above 10000 nM. Besides, the IC50 in series [2] was above 10000 nM. Further, in series [3], the IC50 stood at 18 nM.
In the case of `CNC(=O)Nc1ccc2c(c1)C(=O)/C(=C/c1cn(C)c3nccc(N4CCC(C(=O)N5CCOCC5)CC4)c13)O2` [Compound 174, 1-methyl-3-[(2Z)-2-({1-methyl-4-[4-(morpholin-4-ylcarbonyl)piperidin-1-yl]-1H-pyrrolo[2,3-b]pyridin-3-yl}methylidene)-3-oxo-2,3-dihydro-1-benzofuran-5-yl]urea], the melting point fell in the range of 235 to 240 °C. In series [1], the IC50 was determined as 337 nM. For the same compound, the IC50 in series [2] came to 337 nM. In addition, the IC50 in series [3] is 16.5 nM.
`Cn1cc(/C=C2\Oc3ccc(C(=O)O)cc3C2=O)c2c(-c3ccccc3)ccnc21` [Compound 176, (2Z)-2-[(1-methyl-4-phenyl-1H-pyrrolo[2,3-b]pyridin-3-yl)methylidene]-3-oxo-2,3-dihydro-1-benzofuran-5-carboxylic acid] displayed a melting point of 329 to 342 °C. Further, the IC50 in series [1] is above 10000 nM. Also, in series [2], the IC50 was above 10000 nM. In addition, the IC50 in series [3] stood at 445 nM.
`CN(C)CCNC(=O)c1ccc2c(c1)C(=O)/C(=C/c1cn(C)c3nccc(-c4ccccc4)c13)O2` [Compound 187, (2Z)-N-[2-(dimethylamino)ethyl]-2-[(1-methyl-4-phenyl-1H-pyrrolo[2,3-b]pyridin-3-yl)methylidene]-3-oxo-2,3-dihydro-1-benzofuran-5-carboxamide]: the melting point is 255 to 256 °C. Further, the IC50 in series [1] is 99 nM. Besides, the IC50 in series [2] came out at 34 nM. In addition, the IC50 in series [3] was 195 nM.
The like results for `CN1CCN(C(=O)Nc2ccc3c(c2)C(=O)/C(=C/c2cn(C)c4nccc(-c5ccccc5)c24)O3)CC1` [Compound 188, 4-methyl-N-{(2Z)-2-[(1-methyl-4-phenyl-1H-pyrrolo[2,3-b]pyridin-3-yl)methylidene]-3-oxo-2,3-dihydro-1-benzofuran-5-yl}piperazine-1-carboxamide] were, in that order, 211 to 213 °C, above 10000 nM, above 10000 nM and 2450 nM.
The like results for `CN(C)C(=O)C1CCN(c2ccnc3c2c(/C=C2\Oc4ccc(NC(=O)Nc5cccnc5)cc4C2=O)cn3C)CC1` [Compound 189, N,N-dimethyl-1-{1-methyl-3-[(Z)-{3-oxo-5-[(pyridin-3-ylcarbamoyl)amino]-1-benzofuran-2(3H)-ylidene}methyl]-1H-pyrrolo[2,3-b]pyridin-4-yl}piperidine-4-carboxamide] were, in that order, 165 to 175 °C (dec.), 2040 nM, 2030 nM and 10.5 nM.
In turn, `CN(C)CCNC(=O)Nc1ccc2c(c1)C(=O)/C(=C/c1cn(C)c3nccc(N4CC5CCC(C4)O5)c13)O2` [Compound 193, 1-[2-(dimethylamino)ethyl]-3-[(2Z)-2-{[1-methyl-4-(8-oxa-3-azabicyclo[3.2.1]oct-3-yl)-1H-pyrrolo[2,3-b]pyridin-3-yl]methylidene}-3-oxo-2,3-dihydro-1-benzofuran-5-yl]urea] showed a melting point of 175 to 180 °C. The IC50 in series [1] was 45 nM. The IC50 in series [2] was found to be 24 nM. Besides, the IC50 in series [3] was found to be 5.6 nM.
The corresponding values for `CN1CCN(CCNC(=O)Nc2ccc3c(c2)C(=O)/C(=C/c2cn(C)c4nccc(N5CC6CCC(C5)O6)c24)O3)CC1` [Compound 194, 1-[(2Z)-2-{[1-methyl-4-(8-oxa-3-azabicyclo[3.2.1]oct-3-yl)-1H-pyrrolo[2,3-b]pyridin-3-yl]methylidene}-3-oxo-2,3-dihydro-1-benzofuran-5-yl]-3-[2-(4-methylpiperazin-1-yl)ethyl]urea] are 170 to 172 °C, 472 nM, 237 nM and 34 nM.
`Cn1cc(/C=C2\Oc3ccc(C(=O)O)cc3C2=O)c2c(N3CC4CCC(C3)O4)ccnc21` [Compound 197, (2Z)-2-{[1-methyl-4-(8-oxa-3-azabicyclo[3.2.1]oct-3-yl)-1H-pyrrolo[2,3-b]pyridin-3-yl]methylidene}-3-oxo-2,3-dihydro-1-benzofuran-5-carboxylic acid] showed a melting point of 285 to 289 °C. Moreover, the IC50 in series [1] came to 3000 nM. In addition, in series [2], the IC50 turned out to be 2370 nM. In addition, in series [3], the IC50 is 130 nM.
Turning to `Cn1cc(/C=C2\Oc3ccc(NC(=O)Nc4ccncc4)cc3C2=O)c2c(N3CC4CCC(C3)O4)ccnc21` [Compound 198, 1-[(2Z)-2-{[1-methyl-4-(8-oxa-3-azabicyclo[3.2.1]oct-3-yl)-1H-pyrrolo[2,3-b]pyridin-3-yl]methylidene}-3-oxo-2,3-dihydro-1-benzofuran-5-yl]-3-pyridin-4-ylurea], the melting point was 257 to 259 °C. Also, the IC50 in series [1] was 249 nM. Further, the IC50 in series [2] came out at 293 nM. Also, the IC50 in series [3] is 19.5 nM.
